In US10836759B2, “Thiazole derivatives useful as mutant IDH1 inhibitors for treating cancer” (THE UNITED STATES OF AMERICA, AS REPRESENTED BY THE …, priority 2016, dated 2020):

Columns and labels:
IDH1 R132C = IDH1 R132C (Homo sapiens, UniProt O75874, R132C); test: Enzymatic inhibition assay, mutant IDH1 R132C (NADPH depletion coupled to diaphorase/resazurin); type: biochemical; settings: IDH1 R132C enzyme, IC50 class
Method: (§1) Assays were conducted in a 1536-well black solid-bottom plate with a final assay volume of 9 μL.
For IDH1 R132C, 3 μL of enzyme (0.00032 mg/mL IDH1 R132H, 10% glycerol, 50 mM potassium phosphate pH 6.5, 5 mM MgCl2, 0.03% BSA) were added to the plate, followed by the addition of 23 nL of test compound in DMSO. The plate was lidded and incubated at room temperature for 30 minutes at which time 3 μL of substrate were added (0.012 mM NADPH, 0.6 mM α-KG, 10% glycerol, 50 mM potassium phosphate pH 6.5, 5 mM MgCl2, 0.03% BSA). […]

IDH1 R132H = IDH1 R132H (Homo sapiens, UniProt O75874, R132H); test: Enzymatic inhibition assay, mutant IDH1 R132H (NADPH depletion coupled to diaphorase/resazurin); type: biochemical; settings: IDH1 R132H enzyme, IC50 class
IDH1 R132H, sequence (O75874 whole entry R132H): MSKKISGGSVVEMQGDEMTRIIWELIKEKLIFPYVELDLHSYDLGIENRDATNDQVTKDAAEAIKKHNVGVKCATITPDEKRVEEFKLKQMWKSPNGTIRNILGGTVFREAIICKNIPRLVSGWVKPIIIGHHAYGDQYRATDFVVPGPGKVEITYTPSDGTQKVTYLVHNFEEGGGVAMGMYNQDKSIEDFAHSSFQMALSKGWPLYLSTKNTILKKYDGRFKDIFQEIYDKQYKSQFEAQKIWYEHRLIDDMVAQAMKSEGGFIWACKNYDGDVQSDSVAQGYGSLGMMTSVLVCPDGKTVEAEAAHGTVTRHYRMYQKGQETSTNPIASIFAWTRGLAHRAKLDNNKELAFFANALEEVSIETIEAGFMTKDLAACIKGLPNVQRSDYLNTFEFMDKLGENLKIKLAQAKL
Method: as §1
Specifically, for IDH1 R132H, 3 μL of enzyme (4 mM β-ME, 0.0005 mg/mL IDH1 R132H, 150 mM NaCl, 20 mM Tris pH 7.5, 10 mM MgCl2, 0.05% BSA) were added to the plate, followed by the addition of 23 nL of test compound in DMSO. The plate was lidded and incubated at room temperature for 30 minutes at which time 3 μL of substrate were added (0.016 mM NADPH, 2 mM α-KG, 150 mM NaCl, 20 mM Tris pH 7.5, 10 mM MgCl2, 0.05% BSA). This reaction was incubated at room-temperature for 60 minutes at which time the detection mix was added (0.06 mg/mL diaphorase, 0.036 mM resazurin, 150 mM NaCl, 20 mM Tris pH 7.5, 10 mM MgCl2, 0.05% BSA). […]

IDH1 R132C, sequence (O75874 whole entry R132C): as the sequence (O75874 whole entry R132H) above, with H132C counted along it

IC50 (IDH1 R132C) [nM] | IC50 (IDH1 R132H) [nM] | Compound
< 300 | < 300 | CCOc1ccc(Cl)c(-n2c(C=C(C)C)c(C(=O)N3CC4CCC(C3)N4)cc(-c3nc(-c4ccc(Cl)cc4)cs3)c2=O)c1 (single isomer, unassigned) [Compound 126-1]
1000 to 5000 | 1000 to 5000 | CCOc1ccc(Cl)c(-n2c(C=C(C)C)c(C(=O)N3CC4CCC(C3)N4)cc(-c3nc(-c4ccc(Cl)cc4)cs3)c2=O)c1 (single isomer, unassigned) [Compound 126-2]
< 300 | 300 to 1000 | CCc1ccc(Cl)cc1-n1c(C=C(C)C)c(C(=O)N2CC3CCC(C2)N3)cc(-c2nc(-c3ccc(Cl)cc3)cs2)c1=O (single isomer, unassigned) [Compound 133-1]
300 to 1000 | 1000 to 5000 | CCc1ccc(Cl)cc1-n1c(C=C(C)C)c(C(=O)N2CC3CCC(C2)N3)cc(-c2nc(-c3ccc(Cl)cc3)cs2)c1=O (single isomer, unassigned) [Compound 133-2]
< 300 | < 300 | CCOc1ccc(Cl)c(-n2c(C=C(C)C)c(C(=O)N3CCNCC3)cc(-c3nc(-c4ccc(Cl)cc4)cs3)c2=O)c1 (single isomer, unassigned) [Compound 139-1]
1000 to 5000 | 300 to 1000 | CCOc1ccc(Cl)c(-n2c(C=C(C)C)c(C(=O)N3CCNCC3)cc(-c3nc(-c4ccc(Cl)cc4)cs3)c2=O)c1 (single isomer, unassigned) [Compound 139-2]
< 300 | < 300 | CCOc1ccc(Cl)cc1-n1c(C=C(C)C)c(C(=O)N2CCNCC2)cc(-c2nc(-c3ccc(C#N)cc3)cs2)c1=O (single isomer, unassigned) [Compound 140-1]
300 to 1000 | < 300 | CCOc1ccc(Cl)cc1-n1c(C=C(C)C)c(C(=O)N2CCNCC2)cc(-c2nc(-c3ccc(C#N)cc3)cs2)c1=O (single isomer, unassigned) [Compound 140-2]
< 300 | < 300 | CCOc1ccc(Cl)cc1-n1c(C=C(C)C)c(C(=O)N2CC3CCC(C2)N3)cc(-c2nc(-c3ccc(C#N)cc3)cs2)c1=O (single isomer, unassigned) [Compound 141-1]
< 300 | 300 to 1000 | CCOc1ccc(Cl)cc1-n1c(C=C(C)C)c(C(=O)N2CC3CCC(C2)N3)cc(-c2nc(-c3ccc(C#N)cc3)cs2)c1=O (single isomer, unassigned) [Compound 141-2]
300 to 1000 | – | CCOc1ccc(Cl)cc1-n1c(C=C(C)C)c(C(=O)N2CCNCC2)cc(-c2nc(-c3ccc(Cl)cc3)cs2)c1=O (single isomer, unassigned) [Compound 143-1]
< 300 | < 300 | CCc1ccc(Cl)cc1-n1c(C=C(C)C)c(C(=O)N2CCNCC2)cc(-c2nc(-c3ccc(Cl)cc3)cs2)c1=O (single isomer, unassigned) [Compound 144-1]
300 to 1000 | < 300 | CCc1ccc(Cl)cc1-n1c(C=C(C)C)c(C(=O)N2CCNCC2)cc(-c2nc(-c3ccc(Cl)cc3)cs2)c1=O (single isomer, unassigned) [Compound 144-2]
300 to 1000 | – | CCc1ccc(OC)cc1-n1c(C=C(C)C)c(C(=O)N2CCNCC2)cc(-c2nc(-c3ccc(Cl)cc3)cs2)c1=O (single isomer, unassigned) [Compound 151-2]

The next lines start with the compound.

Compound | IC50 (IDH1 R132C) [nM] | IC50 (IDH1 R132H) [nM]
CCOc1ccc(Cl)cc1-n1c(C=C(C)C)c(C(=O)N2CC3CCC(C2)N3)cc(-c2nc(-c3ccc(Cl)cc3)cs2)c1=O (single isomer, unassigned) [Compound 113-1] | < 300 | < 300
CCOc1ccc(Cl)cc1-n1c(C=C(C)C)c(C(=O)N2CC3CCC(C2)N3)cc(-c2nc(-c3ccc(Cl)cc3)cs2)c1=O (single isomer, unassigned) [Compound 113-2] | 300 to 1000 | 1000 to 5000
CCc1ccc(OC)cc1-n1c(C=C(C)C)c(C(=O)N2C[C@H]3CC[C@@H](C2)N3)cc(-c2nc(-c3ccc(Cl)cc3)cs2)c1=O (single isomer, unassigned) [Compound 114-1] | < 300 | < 300
CCc1ccc(OC)cc1-n1c(C=C(C)C)c(C(=O)N2C[C@H]3CC[C@@H](C2)N3)cc(-c2nc(-c3ccc(Cl)cc3)cs2)c1=O (single isomer, unassigned) [Compound 114-2] | 300 to 1000 | 300 to 1000
CCc1ccc(Cl)cc1-n1c(C=C(C)C)c(C(=O)N2CCNCC2)cc(-c2nc(-c3ccc(Cl)cc3)cs2)c1=O [Compound 101] | < 300 | < 300
CCc1ccc(OC)cc1-n1c(C=C(C)C)c(C(=O)N2CCNCC2)cc(-c2nc(-c3ccc(C(F)(F)F)cc3)cs2)c1=O [Compound 102] | < 300 | < 300
CCc1ccc(OC)cc1-n1c(C=C(C)C)c(C(=O)N2CCNCC2)cc(-c2nc(-c3ccc(C(F)(F)F)nc3)cs2)c1=O [Compound 103] | < 300 | < 300
CCc1ccc(OC)cc1-n1c(C=C(C)C)c(C(=O)N2CCNCC2)cc(-c2nc(-c3ccc(C(F)F)cc3)cs2)c1=O [Compound 104] | < 300 | < 300
CCOc1ccc(Cl)c(-n2c(C=C(C)C)c(C(=O)N3CCNCC3)cc(-c3nc(-c4ccc(C(F)(F)F)cc4)cs3)c2=O)c1 [Compound 105] | < 300 | < 300
CCOc1ccc(Cl)c(-n2c(C=C(C)C)c(C(=O)N3CCNCC3)cc(-c3nc(-c4ccc(C(F)F)cc4)cs3)c2=O)c1 [Compound 106] | < 300 | < 300
CCOc1ccc(Cl)cc1-n1c(C=C(C)C)c(C(=O)N2CCN[C@@H](C)C2)cc(-c2nc(-c3ccc(C(F)(F)F)cc3)cs2)c1=O [Compound 107] | < 300 | < 300
CCc1cccc(CC)c1-n1c(C=C(C)C)c(C(=O)N2CCN[C@@H](C)C2)cc(-c2nc(-c3ccc(C(F)F)cc3)cs2)c1=O [Compound 108] | < 300 | < 300
CCc1cccc(CC)c1-n1c(C=C(C)C)c(C(=O)N2CCN[C@@H](C)C2)cc(-c2nc(-c3ccc(Cl)cc3)cs2)c1=O [Compound 109] | < 300 | < 300
CCOc1ccc(Cl)cc1-n1c(C=C(C)C)c(C(=O)N2CCN[C@H](C)C2)cc(-c2nc(-c3ccc(C(F)(F)F)cc3)cs2)c1=O [Compound 110] | < 300 | < 300
CCc1cccc(CC)c1-n1c(C=C(C)C)c(C(=O)N2CCN[C@H](C)C2)cc(-c2nc(-c3ccc(C(F)F)cc3)cs2)c1=O [Compound 111] | < 300 | < 300
CCc1cccc(CC)c1-n1c(C=C(C)C)c(C(=O)N2CCN[C@H](C)C2)cc(-c2nc(-c3ccc(Cl)cc3)cs2)c1=O [Compound 112] | < 300 | < 300
CCOc1ccc(Cl)cc1-n1c(C=C(C)C)c(C(=O)N2CC3CCC(C2)N3)cc(-c2nc(-c3ccc(Cl)cc3)cs2)c1=O [Compound 113] | < 300 | < 300
CCc1ccc(OC)cc1-n1c(C=C(C)C)c(C(=O)N2CC3CCC(C2)N3)cc(-c2nc(-c3ccc(Cl)cc3)cs2)c1=O [Compound 114] | < 300 | < 300
CCOc1ccc(Cl)cc1-n1c(C=C(C)C)c(C(=O)N2CC3CCC(C2)N3)cc(-c2nc(-c3ccc(C(F)(F)F)cc3)cs2)c1=O [Compound 115] | < 300 | < 300
CCc1cccc(CC)c1-n1c(C=C(C)C)c(C(=O)N2CC3CCC(C2)N3)cc(-c2nc(-c3ccc(C(F)F)cc3)cs2)c1=O [Compound 116] | < 300 | < 300
CCc1ccc(Cl)cc1-n1c(CC(C)C)c(C(=O)N2CCNCC2)cc(-c2nc(-c3ccc(C(F)F)cc3)cs2)c1=O [Compound 118] | 300 to 1000 | 300 to 1000
CCc1cccc(CC)c1-n1c(C=C(C)C)c(C(=O)N2C[C@H]3CC[C@@H](C2)N3)cc(-c2nc(-c3ccc(C(F)F)nc3)cs2)c1=O [Compound 119] | < 300 | < 300
CCc1ccc(Cl)cc1-n1c(C=C(C)C)c(C(=O)N2CCNCC2)cc(-c2nc(-c3ccc(C(F)(F)F)nc3)cs2)c1=O [Compound 122] | 1000 to 5000 | 300 to 1000
CCc1cccc(CC)c1-n1c(C=C(C)C)c(C(=O)N2CCNC[C@H]2C)cc(-c2nc(-c3ccc(Cl)cc3)cs2)c1=O [Compound 123] | < 300 | < 300
CCc1cccc(CC)c1-n1c(C=C(C)C)c(C(=O)N2CCNC[C@@H]2C)cc(-c2nc(-c3ccc(Cl)cc3)cs2)c1=O [Compound 124] | < 300 | < 300
CCOc1ccc(Cl)cc1-n1c(C=C(C)C)c(C(=O)N2C[C@H]3CC[C@@H](C2)N3)cc(-c2nc(-c3ccc(C(F)F)cc3)cs2)c1=O [Compound 125] | < 300 | < 300
CCOc1ccc(Cl)c(-n2c(C=C(C)C)c(C(=O)N3C[C@H]4CC[C@@H](C3)N4)cc(-c3nc(-c4ccc(Cl)cc4)cs3)c2=O)c1 [Compound 126] | < 300 | < 300
CCOc1ccc(Cl)c(-n2c(C=C(C)C)c(C(=O)N3C[C@H]4CC[C@@H](C3)N4)cc(-c3nc(-c4ccc(C(F)(F)F)cc4)cs3)c2=O)c1 [Compound 127] | < 300 | < 300
